Laboratory results as given in patent US20130317046A1, “USE OF A DPP-4 INHIBITOR IN AUTOIMMUNE DIABETES, PARTICULARLY LADA” (BOEHRINGER INGELHEIM INTERNATIONAL GMBH, priority 2012, published 2013).
Marks after values point to notes of the source that are not given here.

Assays:
[1] = HbA1c in GAD65+ LADA patients, two year double-blind randomized study linagliptin versus glimepiride on metformin; assay type: in vivo, human; details: GAD+ patients
Description: (§1) β-Cell function in latent autoimmune diabetes in adults (LADA) treated with linagliptin versus glimepiride: exploratory results from a two year double-blind, randomized, controlled study:
(§2) It is compared the impact of treatment with the DPP4-inhibitor linagliptin (lina) 5 mg/d and the sulphonylurea glimepiride (glim) 1-4 mg/d on β-cell function in patients retrospectively identified with LADA who had insufficient glycaemic control despite metformin therapy in a two year study.
(§3) Patients were classified as LADA if one or more of the autoantibodies assessed (GAD65, ICA, IA-2A, IAA) were present at baseline or any on-treatment visit. GAD was assessed using RIA methodology (cut-off 0.05 [sensitivity 82%/specificity 98.89% in the Diabetes Autoantibody Standardization Program 2010]).
(§4) The study cohort comprised 1519 patients (16 countries), with assumed common T2D. The prevalence of LADA was 7.8% (n=118). GAD65 was the most prevalent autoantibody (6.5%) whereas ICA (0.3%), IA-2A (1.2%) and IAA (0.2%) were rare. Proportion of patients with 2 positive antibodies was 0.4%. Baseline characteristics in GAD65+LADA patients treated with lina (n=65) or glim (n=53) were fairly well balanced (respective age 59/63 yrs, BMI 30.3/31.7 kg/m2 and diabetes duration >5 years 62%/59%).
(§5) HbA1c reductions were of similar magnitude in the groups.

[2] = Safety and tolerability in people with type 2 diabetes
[3] = Pharmacokinetics of BI 1356 after multiple oral doses once daily for 12 days in patients with type 2 diabetes; details: for feT,ss: steady state (Day 12); for feT,ss / fe0-24: gMean; for fe0-24: fraction excreted in urine
[4] = 2 h postprandial blood glucose excursions in patients with type 2 diabetes; assay type: in vivo, human; details: Day 1, doses ≧2.5 mg
β-cell function = assay: Fasting C-peptide (β-cell function) in GAD65+ LADA patients, two year double-blind randomized study linagliptin versus glimepiride on metformin; assay type: in vivo, human; parameters: Follow-up C-peptide / ΔC-peptide / Baseline C-peptide: unit not given here; details: for Follow-up C-peptide / ΔC-peptide / Baseline C-peptide: fasting, GAD+ patients; for Follow-up C-peptide: 52 weeks; for Follow-up C-peptide / Baseline C-peptide: lina 5 mg/d, glim 1-4 mg/d, on metformin
Description: as §1, §2, §3, §4, §5

[5] = change from baseline at 28 weeks
[6] = change from baseline at 52 weeks
[7] = change from baseline at 104 weeks

Compound	ΔHbA1c [1, 5] [%]	ΔHbA1c [1, 6] [%]	ΔHbA1c [1, 7] [%]	Baseline HbA1c ([1]; subset followed to 28 weeks) [%]	Baseline HbA1c ([1]; subset followed to 52 weeks) [%]	Baseline HbA1c ([1]; subset followed to 104 weeks) [%]	Follow-up C-peptide (β-cell function)	ΔC-peptide (β-cell function; [5])	ΔC-peptide (β-cell function; [6])	ΔC-peptide (β-cell function; [7])	Baseline C-peptide (β-cell function; subset followed to 28 weeks)	Baseline C-peptide (β-cell function; subset followed to 52 weeks)	Baseline C-peptide (β-cell function; subset followed to 104 weeks)	further results
CC#CCn1c(N2CCC[C@@H](N)C2)nc2c1c(=O)n(Cc1nc(C)c3ccccc3n1)c(=O)n2C [BI 1356, 1-[(4-methyl-quinazolin-2-yl)methyl]-3-methyl-7-(2-butyn-1-yl)-8-(3-(R)-amino-piperidin-1-yl)-xanthine]	−0.25	−0.49	−0.41	7.62	7.50	7.40	978	+96***##	+143***##	+202***	821	835	944	safety and tolerability [2]: placebo-like safety and tolerability; feT,ss ([3]; 1 mg oral once daily): 3.34%; fe0-24 ([3]; 2.5 mg oral once daily): 0.139%; feT,ss ([3]; 2.5 mg oral once daily): 3.06%; fe0-24 ([3]; 5 mg oral once daily): 0.453%; feT,ss ([3]; 5 mg oral once daily): 6.27%; fe0-24 ([3]; 10 mg oral once daily): 0.919%; feT,ss ([3]; 10 mg oral once daily): 3.22%; mean accumulation ratio RA,AUC ([3]; doses above 1 mg): ≤ 1.4; form and route of excretion ([3]; human, in vivo): primarily excreted unchanged via the bile; excreted via the kidney ([3]; therapeutic oral dose levels): < 7 % of the administered oral dose; main route of excretion ([3]; therapeutic oral dose levels): mainly excreted via the liver; decrease in 2 h postprandial blood glucose excursions [4]: 80%; preservation of C-peptide (β-cell function; GAD65+ patients, over a 2 yr trajectory, versus glim): preserved C-peptide significantly better than those treated with glim
CCC1=C(C)CN(C(=O)NCCc2ccc(S(=O)(=O)NC(=O)N[C@H]3CC[C@H](C)CC3)cc2)C1=O [Glim, glimepiride, reference compound]	−0.75	−0.52	−0.49	7.75	7.46	7.40	1246	−105	−179	−29	1326	1425	1374	
